Values of other authors, collected in patent US8039023B1, “Composition for relief of menstrual cramps and muscle cramps” (priority 2009, dated 2011).

Test system: pain and muscle cramping symptoms
Conditions: prior art, various brands, typical

In the case of CC(=O)Nc1ccc(O)cc1 [acetaminophen], the “time after ingestion to reduced discomfort from pain and muscle cramping symptoms” value is given as “twenty to forty”.
For CC(=O)Oc1ccccc1C(=O)O [aspirin], the “time after ingestion to reduced discomfort from pain and muscle cramping symptoms” value is given as “twenty to forty”.
For CC(C)Cc1ccc(C(C)C(=O)O)cc1 (stereo not drawn) [ibuprofen], the “time after ingestion to reduced discomfort from pain and muscle cramping symptoms” value is listed as “twenty to forty”.
